For the experiment, the system named is rat PCA response. In words: Rat Passive Cutaneous Anaphylaxis (PCA) test. Type of experiment: in vivo, rat (Wistar). Particulars: sc, subcutaneous. The method, then: Some of the ω-nitroacetophenones prepared in the preceding Examples were submitted for biological testing. The test system was the Rat Passive Cutaneous Anaphylaxis (PCA) test described below in (ii).
i. Serum containing heat labile homocytotropic antibody was raised in rats by a method similar to that used by Mota. (I. Mota Immunology 1964, 7, 681).
Male Wistar rats of 250-300 g, were injected intraperitoneally with 0.5 ml of Bordatella pertussis vaccine (containing 4 × 10^10 dead organism per ml) and subcutaneously with 0.5 ml of an emulsion of 100 mg. of ovalbumin in 2 ml of saline and 3 ml of incomplete Freunds' adjuvant. Rats were bled by cardiac puncture on day 18, the blood was pooled and separated and serum stored at -20° and thawed only once before use.
ii. The P.C.A. test was similar to that described by Ovary and Bier (A. Ovary and O. E. Bier, Prod. Soc. Exp. Biol. Med. 1952, 81, 584) and Goose and Blair (J. Goose and AM.J. N Blair, Immunology 1969, 16, 769)
0.1 ml of each of six twofold serial dilutions of the serum in 0.9% saline were injected intradermally into separate sites on the shaved dorsal surface of 250-350 g Wistar rats. 72 hours later the animals were challlenged by i.v. injection of 0.3 ml of 1% ovalbumin mixed with 0.1 ml of a 5% solution of pontamine sky blue dye both in isotonic saline buffered with pH. 7.2 Sorenson buffer (P.B.S.). The rats were killed after 20 minutes and the diameter of the blue wheals at the antibody injection sites were measured. The starting dilution of the serum was adjusted so that there was no response, after challenge, at the site of injection of the highest dilution and a maximum response at the two or three lowest dilutions. Typically, six twofold serial dilutions of the serum from 1/4 to 1/128 were used.
Compounds were tested for their ability to reduce the diameter of the wheals at the injection sites of dilutions of antibody which on all the controls have less than maximum response. Amounts of the compounds were administered to rats by subcutaneous injection, into the nuchal region, of a solution of the compound in P.B.S. or as a suspension in 1% methyl cellulose, each amount to a test group of six animals at a specified time prior to intravenous challenge with ovalbumin. THe diameters of the blue wheals which developed on the tests group of aimals were compared with those on a control group of six animals treated in the same way as the test group, but which; had received an equivalent subcutaneous injection of the carrier fluid not containing the same volume of the compound under test.
% Inhibition of P.C.A. = 100 (1 - a/b)
a = The mean of the sum of the diameters of the wheals produced in the test group of animals at those antibody sites where all the control group of animals gave less than maximum response.
b = The mean of the sum of diameters of the wheals produced in the control group of amimals at those antibody sites where all the animals in the group gave less than maximum response.
The preferred method of administration was a solution of the test compound dissolved in pH 7.2 buffer and neutralised with sodium bicarbonate. For those compounds having insoluble sodium salts, the salts were isolated by reaction of the free nitro compound with 2.5N sodium hydroxide and the filtered sodium salt washed free of alkali with water. The dried salts were then administered as a suspension in 1% methyl cellulose.

What is called inhibition in vivo is the drop in the measured response relative to a control, in per cent.

On to `Cc1cc(C(=O)O)c(C(=O)C[N+](=O)[O-])cc1C` [Example 9, 4,5-dimethyl-ω-nitroacetophenone-2-carboxylic acid], for which, under “0 mins prior to challenge”, the inhibition in vivo at 25 mg/kg is 33% and the inhibition in vivo at 100 mg/kg came out at 57%. Moreover, where the note is “60 mins prior to challenge”, the inhibition in vivo at 25 mg/kg came to 13% and the inhibition in vivo at 100 mg/kg turned out to be 32%.

For the compound `CCOC(=O)c1cc(C)c(C)cc1C(=O)C[N+](=O)[O-]` [Example 4, 2-ethoxycarbonyl-4,5-dimethyl-ω-nitroacetophenone], for the setting “0 mins prior to challenge”, the inhibition in vivo at 25 mg/kg was 12% and the inhibition in vivo at 100 mg/kg was 16%. Besides, where the note is “60 mins prior to challenge”, the inhibition in vivo at 25 mg/kg was found to be 53% and the inhibition in vivo at 100 mg/kg worked out at 42%.

`CCCOC(=O)c1cc(C)c(C)cc1C(=O)C[N+](=O)[O-]` [Example 5, 2-^n propoxycarbonyl-4,5-dimethyl-ω-nitroacetophenone]: the inhibition in vivo at 25 mg/kg stood at 7% (0 mins prior to challenge) and 44% (60 mins prior to challenge). Besides, the inhibition in vivo at 100 mg/kg by setting is: (0 mins prior to challenge) 11%; (60 mins prior to challenge) 54%.

In the case of `CCOC(=O)c1ccccc1C(=O)C[N+](=O)[O-]` [Example 2, 2-ethoxycarbonyl-ω-nitroacetophenone], under “0 mins prior to challenge”, the inhibition in vivo at 25 mg/kg was 22% and the inhibition in vivo at 100 mg/kg was 34%. Under “60 mins prior to challenge”, the inhibition in vivo at 25 mg/kg is 57% and the inhibition in vivo at 100 mg/kg was found to be 58%.

As for `O=C(O)c1ccccc1C(=O)C[N+](=O)[O-]` [Example 8, ω-nitroacetophenone-2-carboxylic acid], where the note is “0 mins prior to challenge”, the inhibition in vivo at 25 mg/kg came to 12% and the inhibition in vivo at 100 mg/kg stood at 48%. Where the note is “30 mins prior to challenge”, the inhibition in vivo at 25 mg/kg turned out to be 18% and the inhibition in vivo at 100 mg/kg is 37%.

For `O=C(C[N+](=O)[O-])c1cccc(-c2ccccc2)c1C(=O)O` [Example 10, ω-nitro-3-phenylacetophenone-2-carboxylic acid], for the setting “0 mins prior to challenge”, the inhibition in vivo at 25 mg/kg turned out to be 2% and the inhibition in vivo at 84 mg/kg came to 23%. For the same compound, where the note is “30 mins prior to challenge”, the inhibition in vivo at 25 mg/kg amounted to 11% and the inhibition in vivo at 84 mg/kg came to 21%.

For the compound `COC(=O)c1ccccc1C(=O)C[N+](=O)[O-]` [Example 1, 2-methoxycarbonyl-ω-nitroacetophenone], the inhibition in vivo at 25 mg/kg (0 mins prior to challenge) came to 0% and the inhibition in vivo at 25 mg/kg (60 mins prior to challenge) worked out at 32%. For the same compound, the inhibition in vivo at 100 mg/kg by setting is: (0 mins prior to challenge) 12%; (60 mins prior to challenge) 23%.

Regarding `Cc1cc(C(=O)C[N+](=O)[O-])c(C(=O)OC(C)C)cc1C` [Example 6, 2-Isopropoxycarbonyl-4,5-dimethyl-ω-nitroacetophenone], the inhibition in vivo at 25 mg/kg reads like this: (0 mins prior to challenge) 16%; (30 mins prior to challenge) 20%. The inhibition in vivo at 100 mg/kg (0 mins prior to challenge) worked out at 30% and the inhibition in vivo at 100 mg/kg (30 mins prior to challenge) stood at 41%.

Consider `COC(=O)c1cc(C)c(C)cc1C(=O)C[N+](=O)[O-]` [Example 3, 2-methoxycarbonyl-4,5-dimethyl-ω-nitroacetophenone], for which, where the note is “0 mins prior to challenge”, the inhibition in vivo at 25 mg/kg stood at 22% and the inhibition in vivo at 100 mg/kg was determined as 34%. For the same compound, for the setting “60 mins prior to challenge”, the inhibition in vivo at 25 mg/kg was 51% and the inhibition in vivo at 100 mg/kg was determined as 58%.

As for `COC(=O)c1cccc(-c2ccccc2)c1C(=O)C[N+](=O)[O-]` [Example 7], where the note is “0 mins prior to challenge”, the inhibition in vivo at 25 mg/kg stood at 8% and the inhibition in vivo at 100 mg/kg was 14%. Also, under “60 mins prior to challenge”, the inhibition in vivo at 25 mg/kg is -13% and the inhibition in vivo at 100 mg/kg was -2%.

The values above are taken from patent US3983156A, “Substituted ω-nitroacetophenones” (Beecham Group Limited, priority 1973, dated 1976).
